According to patent US8987195B2 (priority 2012, dated 2015):
pEC50: −log10 of the molar value. Where two headings read alike, the source gives them in different places.

What was measured:
[1] = tested on: HCV genotype 1b replicon; assay: HCV replicon assay, genotype 1b replicon EC50; format: cell-based, Hepatitis C virus; conditions: Hepatitis C virus, genotype 1b replicon, read-out: EC50 [gt-1b]
How it was run: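 Potency comes from a four-parameter fit of signal as percent of DMSO control. Replicon-bearing cells were treated 24-48 hours with a compound dilution series in absence of G418, and replicon RNA was quantified normalized to cyclophilin A RNA, or luciferase read.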

[2] = target: HCV NS3/4A protease genotype 1b (Hepatitis C virus genotype 1b, UniProt P26663); assay: HCV NS3/4A protease time-resolved fluorescence (TRF) assay, Ki against genotype 1b; format: biochemical; conditions: IC50 [gt-1b] (nM), NS3/4A genotype 1b, enzyme 0.2 nM
How it was run: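 Enzyme was pre-incubated 30 min with inhibitor in HEPES pH 7.5 buffer (150 mM NaCl, 15% glycerol, 10 mM DTT). Reaction ran 2.5 h at room temperature with 25 nM europium TRF peptide substrate, read at ex 340/em 615 nm. Enzyme levels: 0.2 nM (1b), 0.4 nM (A156T), 0.025 nM (3a). Ki came from four-parameter IC50 via IC50=Ki(1+[S]/KM).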

| Structure (SMILES) | pEC50 [1] | IC50 [2] [nM] | pEC50 ([1]; K+ salt) | IC50 ([2]; K+ salt) [nM] |
| --- | --- | --- | --- | --- |
| Cc1nc2ccc(OC(F)(F)F)cc2c2c1O[C@]1(CC2)C[C@H]2C(=O)N[C@]3(C(=O)NS(=O)(=O)C4(C)CC4)C[C@H]3/C=C\CCCCC[C@H](NC(=O)OC3CCCC3)C(=O)N2C1 [Example 125, cyclopentyl [(2R,6S,12Z,13aS,14aR,16a5)-5′-methyl-14a-{[(1-methylcyclopropyl)sulfonyl]carbamoyl}-5,16-dioxo-9′-(trifluoromethoxy)-1,1′,2′,5,6,7,8,9,10,11,13a,14,14a,15,16,16a-hexadecahydrospiro[cyclopropa[e]pyrrolo[1,2-a][1,4]diazacyclopentadecine-2,3′-pyrano[2,3-c]quinolin]-6-yl]carbamate] | 8.43 | 0.016 | – | – |
| Cc1nc2ccccc2c2c1O[C@]1(CC2)C[C@H]2C(=O)N[C@]3(C(=O)NS(=O)(=O)C4(C)CC4)C[C@H]3/C=C\CCCCC[C@H](NC(=O)OC(C)C3CC3)C(=O)N2C1 (stereo partly drawn) [Example 126, 1-cyclopropylethyl [(2R,6S,12Z,13aS,14aR,16aS)-5′-methyl-14a-{[(1-methylcyclopropyl)sulfonyl]carbamoyl}-5,16-dioxo-1,1′,2′,5,6,7,8,9,10,11,13a,14,14a,15,16,16a-hexadecahydrospiro[cyclopropa[e]pyrrolo[1,2-a][1,4]diazacyclopentadecine-2,3′-pyrano[2,3-c]quinolin]-6-yl]carbamate] | 8.58 | 0.029 | – | – |
| Cc1nc2ccccc2c2c1O[C@]1(CC2)C[C@H]2C(=O)N[C@]3(C(=O)NS(=O)(=O)C4(C)CC4)C[C@H]3/C=C\CCCCC[C@H](NC(=O)OCCF)C(=O)N2C1 [Example 127, 2-fluoroethyl [(2R,6S,12Z,13aS,14aR,16aS)-5′-methyl-14a-{[(1-methylcyclopropyl)sulfonyl]carbamoyl}-5,16-dioxo-1,1′,2′,5,6,7,8,9,10,11,13a,14,14a,15,16,16a-hexadecahydrospiro[cyclopropa[e]pyrrolo[1,2-a][1,4]diazacyclopentadecine-2,3′-pyrano[2,3-c]quinolin]-6-yl]carbamate] | 9.40 | 0.031 | – | – |
| COCCOC(=O)N[C@H]1CCCCC/C=C\[C@@H]2C[C@@]2(C(=O)NS(=O)(=O)C2(C)CC2)NC(=O)[C@@H]2C[C@]3(CCc4c(c(C)nc5ccccc45)O3)CN2C1=O [Example 128, 2-methoxyethyl [(2R,6S,12Z,13aS,14aR,16aS)-5′-methyl-14a-{[(1-methylcyclopropyl)sulfonyl]carbamoyl}-5,16-dioxo-1,1′,2′,5,6,7,8,9,10,11,13a,14,14a,15,16,16a-hexadecahydrospiro[cyclopropa[e]pyrrolo[1,2-a][1,4]diazacyclopentadecine-2,3′-pyrano[2,3-c]quinolin]-6-yl]carbamate] | 8.70 | 0.044 | – | – |
| Cc1nc2ccccc2c2c1O[C@]1(CC2)C[C@H]2C(=O)N[C@]3(C(=O)NS(=O)(=O)C4(C)CC4)C[C@H]3/C=C\CCCCC[C@H](NC(=O)OCC(F)(F)F)C(=O)N2C1 [Example 129, 2,2,2-trifluoroethyl [(2R,6S,12Z,13aS,14aR,16aS)-5′-methyl-14a-{[(1-methylcyclopropyl)sulfonyl]carbamoyl}-5,16-dioxo-1,1′,2′,5,6,7,8,9,10,11,13a,14,14a,15,16,16a-hexadecahydrospiro[cyclopropa[e]pyrrolo[1,2-a][1,4]diazacyclopentadecine-2,3′-pyrano[2,3-c]quinolin]-6-yl]carbamate] | 8.68 | 0.011 | – | – |
| Cc1nc2ccccc2c2c1O[C@]1(CC2)C[C@H]2C(=O)N[C@]3(C(=O)NS(=O)(=O)C4(C)CC4)C[C@H]3/C=C\CCCCC[C@H](NC(=O)OCC(C)(C)C)C(=O)N2C1 [Example 130, 2,2-dimethylpropyl [(2R,6S,12Z,13aS,14aR,16aS)-5′-methyl-14a-{[(1-methylcyclopropyl)sulfonyl]carbamoyl}-5,16-dioxo-1,1′,2′,5,6,7,8,9,10,11,13a,14,14a,15,16,16a-hexadecahydrospiro[cyclopropa[e]pyrrolo[1,2-a][1,4]diazacyclopentadecine-2,3′-pyrano[2,3-c]quinolin]-6-yl]carbamate] | 8.71 | 0.01 | – | – |
| Cc1nc2ccccc2c2c1O[C@]1(CC2)C[C@H]2C(=O)N[C@]3(C(=O)NS(=O)(=O)C4(C)CC4)C[C@H]3/C=C\CCCCC[C@H](NC(=O)OC3(C4CC4)CC3)C(=O)N2C1 [Example 131, 1,1′-bi(cyclopropyl)-1-yl [(2R,6S,12Z,13aS,14aR,16aS)-5′-methyl-14a-{[(1-methylcyclopropyl)sulfonyl]carbamoyl}-5,16-dioxo-1,1′,2′,5,6,7,8,9,10,11,13a,14,14a,15,16,16a-hexadecahydrospiro[cyclopropa[e]pyrrolo[1,2-a][1,4]diazacyclopentadecine-2,3′-pyrano[2,3-c]quinolin]-6-yl]carbamate] | 8.89 | 0.003 | – | – |
| COc1ccc2c3c(c(C4CC4)nc2c1)O[C@]1(CC3)C[C@H]2C(=O)N[C@]3(C(=O)NS(=O)(=O)C4(C)CC4)C[C@H]3/C=C\CCCCC[C@H](NC(=O)NC(C)(C)C)C(=O)N2C1 [Example 132, (2R,6S,12Z,13aS,14aR,16aS)-6-[(tert-butylcarbamoyl)amino]-5′-cyclopropyl-8′-methoxy-N-[(1-methylcyclopropyl)sulfonyl]-5,16-dioxo-1,1′,2′,6,7,8,9,10,11,13a,14,15,16,16a-tetradecahydrospiro[cyclopropa[e]pyrrolo[1,2-a][1,4]diazacyclopentadecine-2,3′-pyrano[2,3-c]quinoline]-14a(5H)-carboxamide] | 8.85 | 0.002 | – | – |
| COc1ccc2c3c(c(C4CC4)nc2c1)O[C@]1(CC3)C[C@H]2C(=O)N[C@]3(C(=O)NS(=O)(=O)C4(C)CC4)C[C@H]3/C=C\CCCCC[C@H](NC(=O)NC3CCCC3)C(=O)N2C1 [Example 133, (2R,6S,12Z,13aS,14aR,16aS)-6-[(cyclopentylcarbamoyl)amino]-5′-cyclopropyl-8′-methoxy-N-[(1-methylcyclopropyl)sulfonyl]-5,16-dioxo-1,1′,2′,6,7,8,9,10,11,13a,14,15,16,16a-tetradecahydrospiro[cyclopropa[e]pyrrolo[1,2-a][1,4]diazacyclopentadecine-2,3′-pyrano[2,3-c]quinoline]-14a(5H)-carboxamide] | 7.76 | 0.007 | – | – |
| COc1ccc2c3c(c(C4CC4)nc2c1)O[C@]1(CC3)C[C@H]2C(=O)N[C@]3(C(=O)NS(=O)(=O)C4(C)CC4)C[C@H]3/C=C\CCCCC[C@H](NC(=O)OC3CCCC3)C(=O)N2C1 [Example 134, cyclopentyl [(2R,6S,12Z,13aS,14aR,16aS)-5′-cyclopropyl-8′-methoxy-14a-{[(1-methylcyclopropyl)sulfonyl]carbamoyl}-5,16-dioxo-1,1′,2′,5,6,7,8,9,10,11,13a,14,14a,15,16,16a-hexadecahydrospiro[cyclopropa[e]pyrrolo[1,2-a][1,4]diazacyclopentadecine-2,3′-pyrano[2,3-c]quinolin]-6-yl]carbamate] | – | – | 8.55 | 0.014 |
| COc1ccc2c3c(c(C4CC4)nc2c1)O[C@]1(CC3)C[C@H]2C(=O)N[C@]3(C(=O)NS(=O)(=O)C4(C)CC4)C[C@H]3/C=C\CCCCC[C@H](NC(=O)OC3(C)CC3)C(=O)N2C1 [Example 135, 1-methylcyclopropyl [(2R,6S,12Z,13aS,14aR,16aS)-5′-cyclopropyl-8′-methoxy-14a-{[(1-methylcyclopropyl)sulfonyl]carbamoyl}-5,16-dioxo-1,1′,2′,5,6,7,8,9,10,11,13a,14,14a,15,16,16a-hexadecahydrospiro[cyclopropa[e]pyrrolo[1,2-a][1,4]diazacyclopentadecine-2,3′-pyrano[2,3-c]quinolin]-6-yl]carbamate] | – | – | 8.55 | 0.037 |
| COc1ccc2c3c(c(C4CC4)nc2c1)O[C@]1(CC3)C[C@H]2C(=O)N[C@]3(C(=O)NS(=O)(=O)C4(C)CC4)C[C@H]3/C=C\CCCCC[C@H](NC(=O)OCC(C)C)C(=O)N2C1 [Example 136, 2-methylpropyl [(2R,6S,12Z,13aS,14aR,16aS)-5′-cyclopropyl-8′-methoxy-14a-{[(1-methylcyclopropyl)sulfonyl]carbamoyl}-5,16-dioxo-1,1′,2′,5,6,7,8,9,10,11,13a,14,14a,15,16,16a-hexadecahydrospiro[cyclopropa[e]pyrrolo[1,2-a][1,4]diazacyclopentadecine-2,3′-pyrano[2,3-c]quinolin]-6-yl]carbamate] | – | – | 8.67 | 0.019 |
| COc1ccc2c3c(c(C4CC4)nc2c1)O[C@]1(CC3)C[C@H]2C(=O)N[C@]3(C(=O)NS(=O)(=O)C4(C)CC4)C[C@H]3/C=C\CCCCC[C@H](NC(=O)OC(C)C)C(=O)N2C1 [Example 137, propan-2-yl [(2R,6S,12Z,13aS,14aR,16aS)-5′-cyclopropyl-8′-methoxy-14a-{[(1-methylcyclopropyl)sulfonyl]carbamoyl}-5,16-dioxo-1,1′,2′,5,6,7,8,9,10,11,13a,14,14a,15,16,16a-hexadecahydrospiro[cyclopropa[e]pyrrolo[1,2-a][1,4]diazacyclopentadecine-2,3′-pyrano[2,3-c]quinolin]-6-yl]carbamate] | 8.77 | 0.025 | – | – |
